According to a melting point compilation (Tetko et al.; mined from patent text by program, amines drawn as free bases though some values may be those of a salt):

Row | SMILES | melting point [°C]
1 | COn1cc(C(=O)O)c(=O)c2c3sc(=O)n(C)c3ccc21 | > 300
2 | COc1cc(O)ccc1[N+](=O)[O-] | 142
3 | CC[C@H]1c2ccc(C#N)n2-c2cc(F)c(F)cc2N1S(=O)(=O)c1ccc(OS(N)(=O)=O)cc1 | 196 to 201
4 | CCOC(=O)c1cn(CC)c2cc(C(=O)C=C(C)N(C)C)ccc2c1=O | 178 to 180
5 | Cc1cc2ccccc2c(-c2ccccc2I)n1 | 111 to 112
6 | C=CCNC(=O)[C@H]1CN(c2ccc(N3CCOCC3)c(F)c2)C(=O)O1 | 167 to 169
7 | COC(=N)NC(=O)NC(C)C | 64 to 67
8 | CNc1nc(Nc2ccc(CNC(=O)OC(C)(C)C)cc2)ncc1[N+](=O)[O-] | 260
9 | Cn1c(CCC(=O)O)ccc1C(=O)c1ccc(Cl)cc1 | 188 to 191
10 | N#Cc1nc2ccc(Cl)cc2c2c1ncn2-c1ccccc1Cl | 248 to 250
11 | CC(C)CCOC(=O)COc1cc(F)ccc1C(=S)NCc1cccc([N+](=O)[O-])c1 | 56 to 58
12 | CN1Cc2c(-c3noc(CNC4CC4)n3)ncn2-c2ccc(F)cc2C1=O | 176 to 178
13 | CC(=NOCCOc1ccc(CC2SC(=O)NC2=O)cc1)c1ccc(O)cc1 (centres undefined) | 157 to 159
14 | COc1ccc(-c2ccnnc2)cc1OC1CCCC1 | 100 to 102
15 | ON=Cc1cc2c(cn1)[nH]c1ccccc12 | 157 to 159
16 | CCCCCCCCCCCCCCCCCCCCCC(=O)Oc1cc(C(C)(C)C)c(O)c(C(C)(C)C)c1 | 59 to 61
17 | CCC(OC)c1oc(C)cc(=O)c1OCc1ccccc1 (centres undefined) | 63 to 65
18 | COc1cc(Nc2c(C#N)cnc3cc(-c4csc(CN5CCOCC5)c4)c(OC)cc23)c(Cl)cc1Cl | 148 to 150
19 | O=C(O)c1ccc(NC(=O)c2sc3c([N+](=O)[O-])c(O)c(O)cc3c2Cl)cc1 | 298 to 300
20 | O=C1Cc2cc(-n3cccc3)ccc2C(=O)N1 | 212 to 213
21 | O=C(Nc1ccccc1)n1[nH]c(C(F)(F)F)cc1=O | 109 to 110
22 | O=C1N(Cc2ccc(C(F)(F)F)o2)c2cc3c(cc2C12COc1cc4c(cc12)CCO4)OCCO3 (centres undefined) | 189 to 191
23 | COC(=O)[C@@H]1C(=O)NC[C@H]1c1ccc(Cl)cc1 | 166

Row | SMILES | melting point [°C]
24 | CC(=NOc1ccc(F)cc1)c1ccc(C(F)(F)F)cc1NS(=O)(=O)C(F)(F)F | 95 to 96
25 | Cn1c(=O)[nH]c2cc(CC(=O)O)ccc21 | 220
26 | COc1cc(N)c2nccc(C=Cc3cccc(C(F)(F)F)c3)c2c1 | 124 to 126
27 | C[C@H](NC(=O)CCSC(=O)c1ccccc1)C(=O)O | 99 to 100
28 | CN1CN(C2CC2)c2ccc(C(N)=O)cc2S1(=O)=O | 271 to 273
29 | N#CN=C(Nc1ccccc1)Nc1ccc(C#N)cc1O | 270 to 271
30 | COc1ccccc1C1CC=NN1C(=O)c1cccnc1 (centres undefined) | 93 to 95
31 | CCCCS(=O)(=O)N(C(=O)OC(C)(C)C)c1cc(O)ccc1OCc1ccccc1 | 131 to 133
32 | CC(=O)NCCc1ccc(CCl)cc1 | 86 to 88
33 | CON(C)C(=O)c1sc(SC)c2c1CCc1sc(-c3ccccc3)nc1-2 | 157 to 158
34 | CCCc1nc2c(N)nc3cc(OCCNS(C)(=O)=O)ccc3c2s1 | 148 to 151
35 | C#CCOc1ccc(C2=NC3=CCNC(=O)C3=N2)c(OC)c1 | 178 to 180
36 | CS(=O)(=O)OCCOc1ccccc1OCC(F)(F)F | 36 to 38
37 | OC[C@H](F)[C@H](OCc1ccccc1)[C@H](OCc1ccccc1)[C@@H](O)C(F)(F)F | 64 to 65
38 | NC(=O)/C=C1/c2cc(F)ccc2CC1O (centres undefined) | 201 to 202
39 | O=C1NC(=O)c2c1ccc1[nH]c3ccc(O)cc3c21 | 335 to 345
40 | CCOC(=O)C(C)(C)N1OCC(CSC)=C(c2ccccc2)C1=O | 105 to 106
41 | COC(=O)c1oc2cc3ccccc3cc2c1OC | 121 to 124
42 | FC(F)(F)c1cccc2snnc12 | 41 to 44
43 | N#CCCc1cccc(-c2nc(=O)c3ccccc3s2)n1 | 157
44 | CCOC(=O)c1cn2c3c(cc(CN4CCOCC4)cc3c1=O)OC(F)(F)C2 | 176 to 177
45 | COc1cc(Cl)cc(Cl)c1O | 62
46 | C#CCCCCn1ncc2c(N)c(C(=O)OCC)c(C)nc21 | 63 to 65

Row | SMILES | melting point [°C]
47 | O=C1c2ccccc2C(=O)N1CSc1cccnc1 | 123 to 124
48 | CC1(c2cc(-c3cccc(CC4SC(N5CCOCC5)=NC4=O)c3)ccc2O)CCCCC1 (centres undefined) | 98 to 99
49 | O=c1[nH]c2cc(C(F)(F)F)c([N+](=O)[O-])c(Cl)c2[nH]c1=O | 343 to 347
50 | COc1cc(-c2ncc(C(F)(F)F)cc2OC)ccc1Cl | 62 to 63
51 | CC(=O)C1CCC2C3CCC4CC(=O)CCC4(C)C3C(O)CC12C (centres undefined) | 227 to 233
52 | O=C1c2ccccc2N(N2CCCCCC2)C2=NCCN12 | 206 to 208
53 | CC(C1CC(c2ccc(C(F)(F)F)cc2)C1)N(O)C(N)=O (centres undefined) | 147 to 148
54 | CC(C)(C)NC(=O)N(C(=O)C1CCC2C3CC=C4C=C(C(=O)O)CCC4(C)C3CCC12C)C(C)(C)C (centres undefined) | 118 to 120
55 | O=C(c1ccc2cnccc2n1)N1CCc2ccccc2C1 | 98 to 100
56 | COC(=O)C(=CN(C)C)N(C)c1nccc(-c2ccccc2)n1 | 101
57 | CC(=O)Nc1c(C(=O)c2cccc(NS(C)(=O)=O)c2)[nH]c2cc(Cl)ccc12 | 133 to 142
58 | CS(=O)(=O)c1ccc(-c2nc(C(F)(F)F)[nH]c2-c2ccc3ccccc3c2)cc1 | 228 to 230
59 | O=C(O)C1CCC2C(=O)N(c3ccccc3)C(=S)N12 (centres undefined) | 230
60 | COc1ccc2c(c1)CC(N(CC(=O)O)C(=O)C(C)CSC(C)=O)CC2 (centres undefined) | 147 to 150
61 | CC(C)c1cc(C#N)cc(C(=O)Nc2ccn(C)n2)n1 | 174
62 | O=C(O)CCNC1CCCN(c2ccc3c(C(=O)NCC45CC6CC(CC(C6)C4)C5)c(Cl)ccc3n2)C1 (centres undefined) | 176 to 189
63 | CC(C)CCCC(C)C1CCC2C3CC=C4CCCCC4(C)C3CCC12C (centres undefined) | 90 to 92
64 | Cn1nc(-c2cnc3[nH]cc(C(=O)NCC(C)(C)CO)c3n2)c2ccc(F)cc21 | 291 to 293
65 | Cc1cc(CO)ccn1 | 58 to 59
66 | Cc1nc2c(N)nc3ccccc3c2n1CCCCCCS(C)(=O)=O | 202 to 206
67 | CC(=O)SC(CC(=O)c1ccc(C(C)C)cc1)C(=O)O (centres undefined) | 84 to 86

Other lines, results leading:

Row | melting point [°C] | SMILES
68 | 247 to 249 | Cn1c(-c2ccc(C(=N)N)cc2)nc2cc(C(=O)NCCC(=O)O)ccc21
69 | 133 to 136 | CCc1c(-c2ccccc2)oc2c(C(=O)NCCCN3CCN(c4ccccc4OC)CC3)cccc2c1=O
70 | 95 to 98 | CCOC(=O)N1N=C(c2ccc(N)cc2)c2cc(Cl)ccc2CC1C (centres undefined)
71 | > 300 | COc1ccc(-c2[nH]c3ccccc3c(=O)c2C(=O)O)cc1
72 | 264 | CC(=O)Nc1nc2c(Oc3cc(-c4ccc(C(F)(F)F)cc4NCc4cncn4Cc4ccccc4)ncn3)cccc2s1
73 | 109 to 112 | CCCCCc1c(-c2ccc3cc(OCC#N)ccc3c2)n(Cc2ccccc2)c2ccccc12
74 | 154 to 155 | CCOC(=O)c1cc(NCc2ccccc2)c(Oc2ccccc2)c(S(=O)(=O)N(C)C)c1
75 | 84 to 88 | COC(=O)C1=C(C)NC(C)=C(C(=O)OCCN2CCN(C(c3ccccc3)c3ccccc3)CC2)C1c1cccc(Cl)c1Cl (centres undefined)
76 | 85 to 89 | COC1=C(OC)C(=O)C2=C(CCC(CCn3ccccc3=O)CC2)C1=O
77 | 143 to 144 | CCOC(=O)C(=O)c1oc(-n2cnc3ccccc32)nc1-c1ccc(Cl)cc1
78 | 166 to 168 | O=S(=O)(c1ccc(O)cc1)c1c(-c2ccccc2)oc2ccccc12
79 | 150 to 151 | CCc1cc(C(=O)c2ccccc2Cl)c(-n2c(C)nnc2CNC(=O)/C=C/c2ccccc2)s1
80 | 300 | CC(=O)COc1cc(N2C(=O)c3ccccc3C2=O)ccc1N1C(=O)c2ccccc2C1=O
81 | 101 to 103 | COc1cccc2c(Cc3nc(-c4ccccc4)co3)coc12
82 | 125 to 132 | Cc1ccc(F)cc1C(=O)Nc1ccc(C(=O)N2CCC=Cc3sccc32)c(Cl)c1
83 | 97 to 98 | COc1cccc(-c2ccccc2)c1C(O)=S

Row | melting point [°C] | SMILES
84 | 265 to 266 | CN1CCN(c2ccc(Nc3ncc4c(Br)cc(-c5ccc(S(C)(=O)=O)cc5)n4n3)cc2)CC1
85 | 206 to 208 | COc1cn(-c2ccc(-c3ccccn3)cc2F)nc(-c2ccnn2-c2ccccc2)c1=O
86 | 140 to 142 | COC(=O)c1ccccc1C(=O)NNC(=S)Nc1ccccc1
87 | 125 to 127 | COc1ccc2c(c1)C(C(=O)N(Cc1ccc(OCC(F)(F)F)cc1)c1ccc(C(C)C)cc1)CCC2 (centres undefined)
88 | 99 to 100 | O=C(COC(=O)c1ccccc1Nc1ccnc2c(C(F)(F)F)cccc12)OC1CCN(Cc2ccccc2)CC1
89 | 145 to 146 | CSCCN1C(=O)N2CCOC2(c2ccccc2)c2cc(Cl)ccc21 (centres undefined)
90 | 224 to 225 | O=C(CCl)Nc1ccc2c(c1NC(=O)c1ccc(Cl)cc1)C(=O)c1ccccc1C2=O
91 | 177 to 190 | Cc1cccc(C)c1C(=O)Nc1ccc(OCCN2CCOCC2)cc1
92 | 185 to 188 | CCOC(=O)CC(O)(CC)c1cc2n(c(=O)c1C)Cc1cc3ccccc3nc1-2 (centres undefined)
93 | 203 to 206 | CC1=NC(C)(COc2ccc(NC(=O)c3cc(F)cc(N4CCOCC4)c3)c3ccccc23)CO1 (centres undefined)
94 | 222 to 223 | Cc1c(NC(=O)c2ccc(C#CC3(O)CCC3)cc2)ccc2cc(CNCC(C)C)n(C)c12
95 | 90 to 92 | CN1CC(c2cccc(C(F)(F)F)c2)C(=O)C(c2ccccc2Cl)C1 (centres undefined)
96 | 142 to 143 | CC(C)(C)c1cc(NC(=O)Nc2ccc(OCCN3CCOCC3)c3ccccc23)n(-c2ccccc2)n1
97 | 202 to 205 | O=C(CNc1ccc2[nH]c(=O)oc2c1)N1CCC(Cc2ccc(F)cc2)CC1
98 | 150 to 152 | O=C(O)Cc1cccc(C(=O)c2ccc(OCc3ccc4ccccc4c3)cc2)c1
99 | 136 to 142 | COc1ccc(S(=O)(=O)N(Cc2ccccc2)C2(C(=O)NO)CCN(Cc3ccccc3)CC2)cc1
